Measured values from publication PMC9694711, “Synthesis of Paclitaxel Derivatives for Remote Loading into Liposomes and Improved Therapeutic Effect” (Molecules, 2022).

What was measured:
[1] = system: breast cancer cell line 4T1; test: MTT assay, cytotoxicity on 4T1; type: cell-based, mouse; details: for GI50: Mus musculus, MTT, 72 h, mean of two independent determinations; for inhibition % at fixed concentration, 4T1 (printed in GI50 column): @100 nM
Procedure: (§1) MTT assay was applied to verify the rationality of the molecular combination strategy. The cytotoxicity of the compounds was evaluated on lung cancer cell line A549, colon cancer cell line HCT-116, breast cancer cell line 4T1 and normal hepatocyte cell line LO2. Paclitaxel was used as a positive drug. […] The therapeutic index (TI) for LO2/HCT-116, LO2/A549 and LO2/4T1 of active compounds 4a, 4d, 13a, 17a, 17c and paclitaxel are shown in Table 2.
(§2) Cells were inoculated in 96-well plates (cell density 2 × 10^4 cells/well) followed by incubation for 24 h at 37 °C. Paclitaxel and target compounds were added to the corresponding well. Subsequently, the cultures were incubated for 72 h. After the MTT solution (50 µL, 2 mg/mL) was added to cultures, the plates were incubated for an additional 4 h. Purple colored formazan crystals were dissolved in 200 µL DMSO, and the absorbance was recorded at 570 nm using Synergy HT, Bio-Tek (Winooski, VT, USA).

[2] = system: lung cancer cell line A549; test: MTT assay, cytotoxicity on A549; type: cell-based, human; details: Homo sapiens, A549; MTT, 72 h; mean of two independent determinations
Procedure: as §1, §2

[3] = system: colon cancer cell line HCT-116; test: MTT assay, cytotoxicity on HCT-116; type: cell-based, human; details: for GI50: Homo sapiens, HCT-116, MTT, 72 h, mean of two independent determinations
Procedure: as §1, §2

[4] = system: normal hepatocyte cell line LO2; test: MTT assay, cytotoxicity on normal cell LO2; type: cell-based; details: Hepatocyte; MTT, 72 h; mean of two independent determinations
Procedure: as §1, §2

Compound	GI50 [1] [nM]	GI50 [3] [nM]	further results
CC(=O)OC12COC1CC(O)C1(C)C(=O)C(O)C3=C(C)C(OC(=O)C(OC(=O)CCC(=O)OCc4ccc(B(O)O)cc4)C(NC(=O)OC(C)(C)C)c4ccccc4)CC(O)(C(OC(=O)c4ccccc4)C21)C3(C)C (stereo not shown) [Compound 4b, 2’-O-[4-((4-boronobenzyl)oxy)-4-oxobutyryl]docetaxel]	54.7		
CC(=O)OC1C(=O)C2(C)C(O)CC3OCC3(OC(C)=O)C2C(OC(=O)c2ccccc2)C2(O)CC(OC(=O)C(OC(=O)CCCC(=O)OCc3ccc(B(O)O)cc3)C(NC(=O)c3ccccc3)c3ccccc3)C(C)=C1C2(C)C (stereo not shown) [Compound 4c, 2’-O-[5-((4-boronobenzyl)oxy)-5-oxopentanoyl]taxol]	> 100		
CC(=O)OC1C(=O)C2(C)C(O)CC3OCC3(OC(C)=O)C2C(OC(=O)c2ccccc2)C2(O)CC(OC(=O)C(OC(=O)CCSSCCC(=O)OCc3ccc(B(O)O)cc3)C(NC(=O)c3ccccc3)c3ccccc3)C(C)=C1C2(C)C (stereo not shown) [Compound 4e, 2’-O-[3-((3-((4-boronobenzyl)oxy)-3-oxopropyl)disulfaneyl)propionyl]taxol]	> 100		
CC(=O)OC1C(=O)C2(C)C(O)CC3OCC3(OC(C)=O)C2C(OC(=O)c2ccccc2)C2(O)CC(OC(=O)C(OC(=O)c3ccc(B(O)O)cc3)C(NC(=O)c3ccccc3)c3ccccc3)C(C)=C1C2(C)C (stereo not shown) [Compound 6a, 2’-O-[4-boronobenzoyl]taxol]	> 100	> 100	GI50 [2]: > 100 nM
CC(=O)OC12COC1CC(O)C1(C)C(=O)C(O)C3=C(C)C(OC(=O)C(OC(=O)c4ccc(B(O)O)cc4)C(NC(=O)OC(C)(C)C)c4ccccc4)CC(O)(C(OC(=O)c4ccccc4)C21)C3(C)C (stereo not shown) [Compound 6b, 2’-O-[4-boronobenzoyl]docetaxel]	> 100		
CC(=O)OC1C(=O)C2(C)C(O)CC3OCC3(OC(C)=O)C2C(OC(=O)c2ccccc2)C2(O)CC(OC(=O)C(OC(=O)OCCCCCCB(O)O)C(NC(=O)c3ccccc3)c3ccccc3)C(C)=C1C2(C)C (stereo not shown) [Compound 10b, 2’-O-[6-boronohexyl carbonate]taxol]	> 100	> 100	GI50 [4]: 745 nM
CC(=O)OC12COC1CC(O)C1(C)C(=O)C(O)C3=C(C)C(OC(=O)C(OC(=O)OCCCCCCB(O)O)C(NC(=O)OC(C)(C)C)c4ccccc4)CC(O)(C(OC(=O)c4ccccc4)C21)C3(C)C (stereo not shown) [Compound 10c, 2’-O-[6-boronohexyl carbonate] docetaxel]			inhibition % at fixed concentration, HCT-116 (printed in GI50 column) ([3]; @100 nM): 55.66%@100 nM; GI50 [4]: 273 nM; inhibition % at fixed concentration, 4T1 (printed in GI50 column) [1]: 35.97%@100 nM
CC(=O)OC12COC1CC(O)C1(C)C(=O)C(O)C3=C(C)C(OC(=O)C(OC(=O)OCc4ccc(B(O)O)cc4)C(NC(=O)OC(C)(C)C)c4ccccc4)CC(O)(C(OC(=O)c4ccccc4)C21)C3(C)C (stereo not shown) [Compound 13b, 2’-O-[4-boronobenzyl carbonate] docetaxel]	33.1		
CC(=O)OC1C(=O)C2(C)C(O)CC3OCC3(OC(C)=O)C2C(OC(=O)c2ccccc2)C2(O)CC(OC(=O)C(OC(=O)CCCCCB(O)O)C(NC(=O)c3ccccc3)c3ccccc3)C(C)=C1C2(C)C (stereo not shown) [Compound 17d, 2’-O-[6-boronohexanoyl]taxol]	> 100	> 100	GI50 [2]: > 100 nM
CC(=O)OC1C(=O)C2(C)C(O)CC3OCC3(OC(C)=O)C2C(OC(=O)c2ccccc2)C2(O)CC(OC(=O)C(OC(=O)CCCCCCB(O)O)C(NC(=O)c3ccccc3)c3ccccc3)C(C)=C1C2(C)C (stereo not shown) [Compound 17e, 2’-O-[7-boronoheptanoyl]taxol]	> 100	> 100	GI50 [2]: > 100 nM
CC(=O)OC12COC1CC(O)C1(C)C(=O)C(O)C3=C(C)C(OC(=O)C(OC(=O)CCCB(O)O)C(NC(=O)OC(C)(C)C)c4ccccc4)CC(O)(C(OC(=O)c4ccccc4)C21)C3(C)C (stereo not shown) [Compound 17f, 2’-O-[4-boronobutanoyl]docetaxel]	14.5		
CC(=O)OC12COC1CC(O)C1(C)C(=O)C(O)C3=C(C)C(OC(=O)C(OC(=O)CCCCCB(O)O)C(NC(=O)OC(C)(C)C)c4ccccc4)CC(O)(C(OC(=O)c4ccccc4)C21)C3(C)C (stereo not shown) [Compound 17g, 2’-O-[6-boronohexanoyl]docetaxel]			inhibition % at fixed concentration, 4T1 (printed in GI50 column) [1]: 35.83%@100 nM
